Each structure is given as a SMILES string.

The subject of the test is Wnt activity. Nature of the test: Wnt activity reporter assay (SP5 promoter firefly luciferase in SW480 cells). To be noted: Homo sapiens; SW480 cells bearing SP5 promoter luciferase reporter; 24 h after compound addition; read-out: Wnt inhibition. The test is classed as cell-based. The text has this: The above synthesized compounds were screened using the assay procedure for Wnt activity described below.
Reporter cell lines can be generated by stably transducing cells of cancer cell lines (e.g., colon cancer) with a lentiviral construct that include a wnt-responsive promoter driving expression of the firefly luciferase gene.
Lentiviral constructs can be made in which the SP5 promoter, a promoter having eight TCF/LEF binding sites derived from the SP5 promoter, is linked upstream of the firefly luciferase gene. The lentiviral constructs can also include a hygromycin resistance gene as a selectable marker. The SP5 promoter construct can be used to transduce SW480 cells, a colon cancer cell line having a mutated APC gene that generates a truncated APC protein, leading to de-regulated accumulation of β-catenin.
Cultured SW480 cells bearing a reporter construct can be distributed at approximately 10,000 cells per well into 384 well multiwell plates. Compounds from a small molecule compound library can then be added to the wells in half-log dilutions using a three micromolar top concentration. A series of control wells for each cell type receive only buffer and compound solvent. Twenty-four hours after the addition of compound, reporter activity for luciferases can be assayed, for example, by addition of the BrightGlo luminescence reagent (Promega) and the Victor3 plate reader (Perkin Elmer). Readings can be normalized to DMSO only treated cells, and normalized activities can then be used in the IC50 calculations.
Background: Reporter assays use an easily measured gene product as a stand-in for the process of interest.
Regarding `O=C(Nc1cncc(-c2ccc3[nH]nc(-c4nc5c(-c6cccc(F)c6)cncc5[nH]4)c3c2)c1)C1CCCCC1` [Compound 94, N-(5-(3-(7-(3-Fluorophenyl)-3H-imidazo[4,5-c]pyridin-2-yl)-1H-indazol-5-yl)pyridin-3-yl)cyclohexanecarboxamide], the IC50 is 11 nM. Take `c1ccc(-c2cncc3[nH]c(-c4n[nH]c5ccc(-c6cccnc6)cc45)nc23)nc1` [Compound 177, 7-(Pyridin-2-yl)-2-(5-(pyridin-3-yl)-1H-indazol-3-yl)-3H-imidazo[4,5-c]pyridine]: the IC50 worked out at 2 nM. As for `CC(C)CC(=O)Nc1cncc(-c2ccc3[nH]nc(-c4nc5c(-c6cc(F)cc(NCCN(C)C)c6)cncc5[nH]4)c3c2)c1` [Compound 349, N-(5-(3-(7-(3-(2-(Dimethylamino)ethylamino)-5-fluorophenyl)-3H-imidazo[4,5-c]pyridin-2-yl)-1H-indazol-5-yl)pyridin-3-yl)-3-methylbutanamide], the IC50 turned out to be 22 nM. Under `O=C(Nc1cncc(-c2ccc3[nH]nc(-c4nc5c(-c6ccncc6)cncc5[nH]4)c3c2)c1)C1CCCC1` [Compound 170, N-(5-(3-(7-(Pyridin-4-yl)-3H-imidazo[4,5-c]pyridin-2-yl)-1H-indazol-5-yl)pyridin-3-yl)cyclopentanecarboxamide] stands 7000 nM; under `c1cc(-c2cncc3[nH]c(-c4n[nH]c5ccc(-c6cncc(CNCC7CCCC7)c6)cc45)nc23)ccn1` [Compound 173, 1-Cyclopentyl-N-((5-(3-(7-(pyridin-4-yl)-3H-imidazo[4,5-c]pyridin-2-yl)-1H-indazol-5-yl)pyridin-3-yl)methyl)methanamine], 845 nM; under `CN(C)Cc1cncc(-c2ccc3[nH]nc(-c4nc5c(-c6cccc(F)c6)cncc5[nH]4)c3c2)c1` [Compound 89, 1-(5-(3-(7-(3-Fluorophenyl)-3H-imidazo[4,5-c]pyridin-2-yl)-1H-indazol-5-yl)pyridin-3-yl)-N,N-dimethylmethanamine], over 10000 nM. For `CCC(=O)Nc1cncc(-c2ccc3[nH]nc(-c4nc5c(-c6cncc(F)c6)cncc5[nH]4)c3c2)c1` [Compound 20, N-(5-(3-(7-(5-fluoropyridin-3-yl)-3H-imidazo[4,5-c]pyridin-2-yl)-1H-indazol-5-yl)pyridin-3-yl)propionamide], the IC50 lay within 1.4 to 1.8 nM. With `O=C(Nc1cncc(-c2ccc3[nH]nc(-c4nc5c(-c6cccc(F)c6)cncc5[nH]4)c3c2)c1)C1CC1` [Compound 91, N-(5-(3-(7-(3-Fluorophenyl)-3H-imidazo[4,5-c]pyridin-2-yl)-1H-indazol-5-yl)pyridin-3-yl)cyclopropanecarboxamide], the IC50 turned out to be 2 nM.

Regarding `CN1CCN(c2cncc3[nH]c(-c4n[nH]c5ccc(-c6cncc(N)c6)cc45)nc23)CC1` [Compound 247, 5-(3-(7-(4-Methylpiperazin-1-yl)-3H-imidazo[4,5-c]pyridin-2-yl)-1H-indazol-5-yl)pyridin-3-amine], the IC50 is 2 nM. `CN1CCN(c2cncc3[nH]c(-c4n[nH]c5ccc(-c6cncc(NC(=O)Cc7ccccc7)c6)cc45)nc23)CC1` [Compound 252, N-(5-(3-(7-(4-Methylpiperazin-1-yl)-3H-imidazo[4,5-c]pyridin-2-yl)-1H-indazol-5-yl)pyridin-3-yl)-2-phenylacetamide]: the IC50 worked out at 650 nM.

For `CC(C)CC(=O)Nc1cncc(-c2ccc3[nH]nc(-c4nc5c(-c6ccccc6F)cncc5[nH]4)c3c2)c1` [Compound 11, N-(5-(3-(7-(2-fluorophenyl)-3H-imidazo[4,5-c]pyridin-2-yl)-1H-indazol-5-yl)pyridin-3-yl)-3-methylbutanamide], the IC50 lay in the range of 3.5 to 65 nM. Turning to `c1cncc(-c2ccc3[nH]nc(-c4nc5c(N6CCOCC6)cncc5[nH]4)c3c2)c1` [Compound 6, 4-(2-(5-(pyridin-3-yl)-1H-indazol-3-yl)-3H-imidazo[4,5-c]pyridin-7-yl)morpholine], the IC50 lay within 10 to 13 nM. In the case of `c1cncc(-c2ccc3[nH]nc(-c4nc5c(-c6cccnc6)cncc5[nH]4)c3c2)c1` [Compound 136, 7-(Pyridin-3-yl)-2-(5-(pyridin-3-yl)-1H-indazol-3-yl)-3H-imidazo[4,5-c]pyridine] it was 35 nM. For the compound `CC(C)(C)C(=O)Nc1cncc(-c2ccc3[nH]nc(-c4nc5c(-c6ccoc6)cncc5[nH]4)c3c2)c1` [Compound 319, N-(5-(3-(7-(Furan-3-yl)-3H-imidazo[4,5-c]pyridin-2-yl)-1H-indazol-5-yl)pyridin-3-yl)pivalamide], the IC50 is 5 nM. On to `O=C(Nc1cncc(-c2ccc3[nH]nc(-c4nc5c(-c6ccc(F)cc6)cncc5[nH]4)c3c2)c1)C1CCC1` [Compound 111, N-(5-(3-(7-(4-Fluorophenyl)-3H-imidazo[4,5-c]pyridin-2-yl)-1H-indazol-5-yl)pyridin-3-yl)cyclobutanecarboxamide], for which the IC50 was determined as 6 nM.

In the case of `Nc1cncc(-c2ccc3[nH]nc(-c4nc5ccncc5[nH]4)c3c2)c1` [Compound 268, 5-(3-(3H-Imidazo[4,5-c]pyridin-2-yl)-1H-indazol-5-yl)pyridin-3-amine], the IC50 is over 10000 nM. On to `CC(C)CC(=O)Nc1cncc(-c2ccc3[nH]nc(-c4nc5c(-c6cc(F)cc(CNS(C)(=O)=O)c6)cncc5[nH]4)c3c2)c1` [Compound 373, N-(5-(3-(7-(3-Fluoro-5-(methylsulfonamidomethyl)phenyl)-3H-imidazo[4,5-c]pyridin-2-yl)-1H-indazol-5-yl)pyridin-3-yl)-3-methylbutanamide], for which the IC50 amounted to 5 nM. Regarding `CC(C)CC(=O)Nc1cncc(-c2ccc3[nH]nc(-c4nc5c(-c6cccs6)cncc5[nH]4)c3c2)c1` [Compound 397, 3-Methyl-N-(5-(3-(7-(thiophen-2-yl)-3H-imidazo[4,5-c]pyridin-2-yl)-1H-indazol-5-yl)pyridin-3-yl)butanamide], the IC50 stood at 0.1 nM. For the compound `O=C(Nc1cncc(-c2ccc3[nH]nc(-c4nc5c(N6CCCCC6)cncc5[nH]4)c3c2)c1)C1CCC1` [Compound 217, N-(5-(3-(7-(Piperidin-1-yl)-3H-imidazo[4,5-c]pyridin-2-yl)-1H-indazol-5-yl)pyridin-3-yl)cyclobutanecarboxamide], the IC50 turned out to be 39 nM. On to `CC(C)(C)CC(=O)Nc1cncc(-c2ccc3[nH]nc(-c4nc5ccncc5[nH]4)c3c2)c1` [Compound 280, N-(5-(3-(3H-Imidazo[4,5-c]pyridin-2-yl)-1H-indazol-5-yl)pyridin-3-yl)-3,3-dimethylbutanamide], for which the IC50 is 21 nM. `O=C(Nc1cncc(-c2ccc3[nH]nc(-c4nc5ccncc5[nH]4)c3c2)c1)C1CCCCC1` [Compound 286, N-(5-(3-(3H-Imidazo[4,5-c]pyridin-2-yl)-1H-indazol-5-yl)pyridin-3-yl)cyclohexanecarboxamide]: the IC50 was found to be 569 nM.

Regarding `CC(C)C(=O)Nc1cncc(-c2ccc3[nH]nc(-c4nc5c(N6CCN(C)CC6)cncc5[nH]4)c3c2)c1` [Compound 2, N-(5-(3-(7-(4-methylpiperazin-1-yl)-3H-imidazo[4,5-c]pyridin-2-yl)-1H-indazol-5-yl)pyridin-3-yl)isobutyramide], the IC50 lay within 125 to 146 nM. In the case of `Fc1ccccc1-c1cncc2[nH]c(-c3n[nH]c4ccc(-c5cncc(CN6CCCCC6)c5)cc34)nc12` [Compound 127, 7-(2-Fluorophenyl)-2-(5-(5-(piperidin-1-ylmethyl)pyridin-3-yl)-1H-indazol-3-yl)-3H-imidazo[4,5-c]pyridine] it was 14 nM.
